According to patent publication US6143726A, “Complexes of N'-dimethylaminoacetylpartricin A dimethylaminoethylamide, or the salts thereof, and cholesterol 3-sulphate” (priority 1996, dated 2000):

Experiments:
[1] = Acute toxicity test (i.v. administration in mice), LD50 by Probit method; format: in vivo; conditions: i.v. into tail vein, male mice, 15 days observation
Experimental: Groups of 5 […] male mice, of 4 weeks of age and weighing 14-18 g, starved overnight before trial, were treated with serial doses of the SPA-S-753-cholesterol sulphate complex (prepared as described in Example 1) and with the not complexed SPA-S-753 for comparison. The two products, dissolved in 5% glucose solution and diluted to the required concentrations, were injected by i.v. route into a tail vein, at a constant volume of 2 ml/kg and over the time of 30-40 seconds. The animals were then kept under observation for 15 days, while changes in behaviour and mortality were recorded.

[2] = Pharmacokinetics test (i.v.): serum and kidney concentrations, microbiological determination; format: in vivo, Sprague-Dawley rats; conditions: 2 hours after single i.v. dose equivalent to 1.25 mg/kg
Experimental: Two groups of 5 Sprague-Dawley male rats were treated by i.v. route with a single dose equivalent to 1.25 mg/kg of SPA-S-753-cholesterol sulphate complex and of not complexed SPA-S-753 for comparison, with a method similar to that described above. 2 hours following treatments the animals were killed, and the serum and kidneys were collected according to the ordinary procedures. The antibiotic was determined by the microbiological method on the pooled serums and organ homogenates from the 2 groups, the Saccharomyces cerevisiae growth inhibition zones being measured against those produced by antibiotic standard solutions (PYG-agar medium, incubation of 18 h at 30° C.). The antibiotic concentrations found were as follows: 2.6 μg/ml in serum and 4.0 μg/g in the case of SPA-S-753 alone, and 2.4 μg/ml in serum and 0.8 μg/g in the kidneys in the case of SPA-S-753-cholesterol sulphate complex.

[3] = Precipitation at the site of injection after intramuscular administration and tolerance; format: in vivo
[4] = compared with partricin; cited from earlier work
[5] = cited from earlier work

N'-dimethylaminoacetylpartricin A dimethylaminoethylamide diaspartate [SPA-S-753]
acute toxicity index, lethal dose in 50% of the animals (LD50) [1]: 46 to 64 mg/kg | antibiotic concentration in kidneys ([2]; organ homogenates): 4.0 µg/g | antibiotic concentration in serum ([2]; pooled serum): 2.6 µg/mL | precipitation on intramuscular administration [3]: partial precipitation | tolerance ([3]; systemic and local, versus uncomplexed SPA-S-753): negative influence on tolerance of the product | toxicity [4]: definitely much lower than that of partricin | water-solubility [5]: high water-solubility
